Calls of active or inactive are those of the source. The calls are words filed in the database; no cut-off is given here.
Assays:
[1] = test system: B16-F10; assay: Upregulation of cathepsin B expression in mouse B16-F10 cells at 5 to 20 uM incubated for 24 hrs by Western blot analysis; type: functional, cell-based; settings: dose 5-20 µM
[2] = test system: B16-F10; assay: Inhibition of cell migration in mouse B16-F10 cells assessed as wound area at 20 uM incubated for 24 hrs by wound healing assay (reference value: 50.36 +/- 1.68 %); type: functional; parameters: scale not given: the % may be the effect or the level left
[3] = MRT (0 to t) in male Sprague-Dawley rat at 2 mg/kg, iv measured after 12 hrs by LC-MS/MS analysis; type: ADME, organism-based; settings: in vivo
[4] = test system: B16-F10; assay: Inhibition of cell migration in mouse B16-F10 cells assessed as wound area at 10 uM incubated for 24 hrs by wound healing assay (reference value: 50.36 +/- 1.68 %); type: functional; parameters: scale not given: the % may be the effect or the level left
[5] = Tmax in male Sprague-Dawley rat at 20 mg/kg, po measured after 12 hrs by LC-MS/MS analysis; type: ADME, organism-based; settings: in vivo
[6] = molecular target: Histone deacetylase 3 (Homo sapiens, UniProt O15379); assay: Inhibition of recombinant HDAC3 (unknown origin) using Boc-Lys(acetyl)-AMC as substrate preincubated for 1 hr followed by substrate addition and measured after 2 hrs by fluorescence based micro plate reader analysis
[7] = test system: B16-F10; assay: Induction of apoptosis in mouse B16-F10 cells assessed as increase in apoptotic cells at 5 uM incubated for 48 hrs by Annexin V-FITC/PI staining based flow cytometric analysis relative to control; type: functional
[8] = test system: B16-F10; assay: Downregulation of PARP1 expression in mouse B16-F10 cells at 2 uM incubated for 24 hrs by Western blot analysis; type: functional, cell-based
[9] = Oral bioavailability in male Sprague-Dawley rat at 20 mg/kg measured after 12 hrs by LC-MS/MS analysis; type: ADME, organism-based; settings: in vivo
[10] = molecular target: Programmed cell death 1 ligand 1 (Mus musculus, UniProt Q9EP73); assay: (§1) Induction of PD-L1 degradation in mouse B16-F10 cells assessed as decrease in PD-L1 protein level incubated for 24 hrs by Western blot analysis; type: cell-based
[11] = molecular target: Programmed cell death 1 ligand 1 (Mus musculus) (UniProt Q9EP73); assay: as §1; type: cell-based
[12] = molecular target: T1, Histone deacetylase 3 (Mus musculus) (UniProt O88895); assay: Inhibition of HDAC3 in mouse B16-F10 cells assessed as increase in acetylated histone H3 level at 5 uM incubated for 24 hrs by DAPI staining based immunofluorescence analysis; type: cell-based
T1 sequence (whole entry): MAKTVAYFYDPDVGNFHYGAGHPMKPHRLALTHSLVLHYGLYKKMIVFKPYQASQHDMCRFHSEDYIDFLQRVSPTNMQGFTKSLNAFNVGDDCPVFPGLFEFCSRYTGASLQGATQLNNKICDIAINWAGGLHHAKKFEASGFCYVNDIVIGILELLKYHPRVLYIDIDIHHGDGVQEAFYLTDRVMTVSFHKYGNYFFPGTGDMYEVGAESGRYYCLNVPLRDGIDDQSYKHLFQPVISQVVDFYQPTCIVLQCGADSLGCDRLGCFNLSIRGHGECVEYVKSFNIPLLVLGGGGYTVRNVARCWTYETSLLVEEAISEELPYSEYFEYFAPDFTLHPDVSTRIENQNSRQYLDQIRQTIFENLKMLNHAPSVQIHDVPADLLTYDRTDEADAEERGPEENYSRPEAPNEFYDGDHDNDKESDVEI

[13] = test system: B16-F10; assay: Effect on acetylated H3K56 expression level in mouse B16-F10 cells at 5 to 20 uM incubated for 24 hrs by Western blot analysis; type: functional, cell-based; settings: dose 5-20 µM
[14] = Tmax in male Sprague-Dawley rat at 2 mg/kg, iv measured after 12 hrs by LC-MS/MS analysis; type: ADME, organism-based; settings: in vivo
[15] = test system: Mus musculus; assay: Immunomodulatory activity in male C57BL/6 mouse model implanted with mouse B16-F10 cells assessed as increase in CD3+ CD4+ T cells in tumor at 50 mg/kg, po co-administered with NP-19 as once daily dosage via gavage for 14 days by flow cytometric analysis (reference value: 3.1 %); type: functional; settings: time 14 day
[16] = molecular target: Programmed cell death 1 ligand 1 (Mus musculus) (UniProt Q9EP73); assay: Induction of PD-L1 degradation in mouse B16-F10 cells assessed as decrease in PD-L1 protein level at 5 uM preincubated with MG132 for 4 hrs followed by compound addition and measured after 24 hrs by Western blot analysis; type: cell-based
[17] = test system: 4T1; assay: Downregulation of PARP1 expression in mouse 4T1 cells at 2 uM incubated for 24 hrs in presence of olaparib by Western blot analysis; type: functional, cell-based
[18] = molecular target: Histone deacetylase 4 (Homo sapiens, UniProt P56524); assay: Inhibition of recombinant HDAC4 (unknown origin) using Boc-Lys(trifluoroacetyl)-AMC as substrate preincubated for 1 hr followed by substrate addition and measured after 2 hrs by fluorescence based micro plate reader analysis
[19] = test system: 4T1; assay: Antitumor activity against mouse 4T1 cells implanted in female BALB/c mouse model assessed as decrease in PAPR1 expression in tumor co-administrated orally with olaparib as once daily dose via gavage for 14 days by immunohistochemistry analysis; type: functional, cell-based; settings: route po, time 14.0 day
[20] = test system: 4T1; assay: Antitumor activity against mouse 4T1 cells implanted in female BALB/c mouse model assessed as induction of DNA damage by measuring increase in gamma-H2AX expression in tumor co-administrated orally with olaparib as once daily dose via gavage for 14 days by Western blot analysis; type: functional, cell-based; settings: route po, time 14.0 day
[21] = molecular target: T1, Histone deacetylase 3 (Mus musculus); assay: Inhibition of HDAC3 in mouse 4T1 cells assessed as increase in histone H3 acetylation level at 5 to 20 uM incubated for 24 hrs by Western blot analysis; type: cell-based; settings: dose 5-20 µM
[22] = Toxicity in male C57BL/6 mouse implanted with mouse B16-F10 cells assessed as body weight loss at 50 mg/kg, po administered once daily for 14 days; type: organism-based; settings: in vivo, 336 h, time 14 day
[23] = test system: B16-F10; assay: Inhibition of cell migration in mouse B16-F10 cells assessed as wound area at 5 uM incubated for 24 hrs by wound healing assay (reference value: 50.36 +/- 1.68 %); type: functional; parameters: scale not given: the % may be the effect or the level left
[24] = test system: B16-F10; assay: cells; type: functional, cell-based; settings: Mus musculus, B16-F10, 72 h
Description: Antiproliferative activity against mouse B16-F10 cells assessed as inhibition of cell growth incubated for 72 hrs by MTT assay

[25] = molecular target: Protein deacetylase HDAC6 (Homo sapiens, UniProt Q9UBN7); assay: Inhibition of recombinant full length human HDAC6 using Boc-Lys(acetyl)-AMC as substrate preincubated for 1 hr followed by substrate addition and measured after 2 hrs by fluorescence based micro plate reader analysis
[26] = test system: B16-F10; assay: Anti-invasive activity in mouse B16-F10 cells assessed as reduction in invasive capacity at 5 to 20 uM incubated for 24 to 48 hrs by crystal violet staining based microscopic analysis; type: functional, cell-based; settings: dose 5-20 µM, time 24-48 hrs
[27] = molecular target: Histone deacetylase 7 (Homo sapiens, UniProt Q8WUI4); assay: Inhibition of recombinant HDAC7 (unknown origin) using Boc-Lys(trifluoroacetyl)-AMC as substrate preincubated for 1 hr followed by substrate addition and measured after 2 hrs by fluorescence based micro plate reader analysis
[28] = molecular target: Programmed cell death 1 ligand 1 (Mus musculus) (UniProt Q9EP73); assay: Induction of PD-L1 degradation in mouse B16-F10 cells assessed as decrease in PD-L1 protein level by measuring maximal efficacy at 10 uM incubated for 24 hrs by Western blot analysis relative to control; type: cell-based
[29] = MRT (0 to t) in male Sprague-Dawley rat at 20 mg/kg, po measured after 12 hrs by LC-MS/MS analysis; type: ADME, organism-based; settings: in vivo

Programmed cell death 1 ligand 1 (Mus musculus), sequence (Q9EP73 whole entry): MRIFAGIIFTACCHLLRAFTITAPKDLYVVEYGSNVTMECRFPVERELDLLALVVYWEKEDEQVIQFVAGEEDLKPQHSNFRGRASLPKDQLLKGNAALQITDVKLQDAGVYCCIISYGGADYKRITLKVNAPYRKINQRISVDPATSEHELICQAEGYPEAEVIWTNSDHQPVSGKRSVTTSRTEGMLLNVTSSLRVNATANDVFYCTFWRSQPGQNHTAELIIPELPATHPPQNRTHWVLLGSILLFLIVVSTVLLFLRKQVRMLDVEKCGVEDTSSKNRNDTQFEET
Histone deacetylase 3, sequence (O15379 whole entry): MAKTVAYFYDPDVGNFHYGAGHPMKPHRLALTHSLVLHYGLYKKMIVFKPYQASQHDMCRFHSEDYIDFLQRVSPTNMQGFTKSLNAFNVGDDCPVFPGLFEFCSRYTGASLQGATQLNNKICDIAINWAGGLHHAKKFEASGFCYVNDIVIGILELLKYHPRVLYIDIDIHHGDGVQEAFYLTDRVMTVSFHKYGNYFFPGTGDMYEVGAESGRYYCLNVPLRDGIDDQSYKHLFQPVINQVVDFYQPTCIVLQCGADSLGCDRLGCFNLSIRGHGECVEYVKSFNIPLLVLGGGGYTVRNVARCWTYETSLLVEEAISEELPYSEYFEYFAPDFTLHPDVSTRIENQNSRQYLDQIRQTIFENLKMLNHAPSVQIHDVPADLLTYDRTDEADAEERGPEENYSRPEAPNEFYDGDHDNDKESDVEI
Protein deacetylase HDAC6, sequence (Q9UBN7 whole entry): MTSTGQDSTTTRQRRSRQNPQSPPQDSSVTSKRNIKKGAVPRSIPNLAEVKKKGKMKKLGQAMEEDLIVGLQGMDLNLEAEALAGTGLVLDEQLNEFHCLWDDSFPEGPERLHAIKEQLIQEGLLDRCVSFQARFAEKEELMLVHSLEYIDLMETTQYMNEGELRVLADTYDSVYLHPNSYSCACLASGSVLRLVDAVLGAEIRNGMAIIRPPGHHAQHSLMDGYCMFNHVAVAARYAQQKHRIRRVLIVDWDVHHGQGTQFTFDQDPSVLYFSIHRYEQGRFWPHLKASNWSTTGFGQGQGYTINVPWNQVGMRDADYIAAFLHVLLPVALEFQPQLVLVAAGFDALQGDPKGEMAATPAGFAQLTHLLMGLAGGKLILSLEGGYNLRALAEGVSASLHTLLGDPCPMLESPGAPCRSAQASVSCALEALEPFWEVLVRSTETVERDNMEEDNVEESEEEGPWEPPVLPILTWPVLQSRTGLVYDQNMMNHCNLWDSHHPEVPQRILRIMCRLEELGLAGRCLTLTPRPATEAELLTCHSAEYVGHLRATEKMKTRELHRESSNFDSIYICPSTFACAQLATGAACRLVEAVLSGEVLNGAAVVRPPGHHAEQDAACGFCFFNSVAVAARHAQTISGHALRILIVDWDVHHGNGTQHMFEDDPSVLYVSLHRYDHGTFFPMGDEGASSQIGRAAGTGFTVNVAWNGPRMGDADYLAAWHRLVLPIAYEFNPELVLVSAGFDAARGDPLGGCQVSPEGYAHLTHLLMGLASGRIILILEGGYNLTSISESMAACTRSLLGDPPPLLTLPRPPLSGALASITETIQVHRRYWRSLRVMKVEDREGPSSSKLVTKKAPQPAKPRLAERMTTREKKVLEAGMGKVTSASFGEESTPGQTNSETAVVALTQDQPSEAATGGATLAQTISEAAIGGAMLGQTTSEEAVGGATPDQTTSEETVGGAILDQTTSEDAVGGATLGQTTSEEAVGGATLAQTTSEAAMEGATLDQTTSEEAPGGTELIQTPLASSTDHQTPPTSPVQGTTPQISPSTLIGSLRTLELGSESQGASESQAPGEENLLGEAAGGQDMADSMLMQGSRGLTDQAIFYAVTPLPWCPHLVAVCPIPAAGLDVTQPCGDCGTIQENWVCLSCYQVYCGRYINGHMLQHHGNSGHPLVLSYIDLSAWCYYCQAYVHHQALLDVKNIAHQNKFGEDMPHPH
Programmed cell death 1 ligand 1, sequence (Q9EP73 whole entry): as the sequence (Q9EP73 whole entry) above
Histone deacetylase 7, sequence (Q8WUI4 whole entry): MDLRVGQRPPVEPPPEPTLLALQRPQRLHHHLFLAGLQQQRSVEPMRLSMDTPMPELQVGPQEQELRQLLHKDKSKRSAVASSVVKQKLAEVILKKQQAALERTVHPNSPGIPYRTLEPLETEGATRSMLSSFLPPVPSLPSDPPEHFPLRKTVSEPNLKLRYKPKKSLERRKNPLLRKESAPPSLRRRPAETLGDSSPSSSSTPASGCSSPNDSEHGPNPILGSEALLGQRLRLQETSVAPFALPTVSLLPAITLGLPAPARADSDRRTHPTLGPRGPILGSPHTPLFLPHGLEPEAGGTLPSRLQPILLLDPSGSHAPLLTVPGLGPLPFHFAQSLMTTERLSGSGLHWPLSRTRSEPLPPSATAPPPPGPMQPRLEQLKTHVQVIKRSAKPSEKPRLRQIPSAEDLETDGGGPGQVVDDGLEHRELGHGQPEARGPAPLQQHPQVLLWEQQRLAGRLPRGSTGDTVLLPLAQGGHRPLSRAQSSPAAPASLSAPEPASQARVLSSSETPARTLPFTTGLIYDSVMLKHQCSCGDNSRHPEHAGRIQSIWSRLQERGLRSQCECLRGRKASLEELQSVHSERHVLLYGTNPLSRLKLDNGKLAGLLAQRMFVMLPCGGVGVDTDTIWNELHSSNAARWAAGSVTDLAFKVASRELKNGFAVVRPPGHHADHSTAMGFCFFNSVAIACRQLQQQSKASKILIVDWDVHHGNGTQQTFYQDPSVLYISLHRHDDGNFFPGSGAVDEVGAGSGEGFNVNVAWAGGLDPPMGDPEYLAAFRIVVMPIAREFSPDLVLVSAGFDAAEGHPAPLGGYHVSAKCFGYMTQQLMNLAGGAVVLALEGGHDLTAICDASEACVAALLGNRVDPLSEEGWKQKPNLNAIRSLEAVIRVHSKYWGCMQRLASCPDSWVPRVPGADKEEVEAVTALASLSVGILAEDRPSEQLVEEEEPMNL
Histone deacetylase 4, sequence (P56524 whole entry): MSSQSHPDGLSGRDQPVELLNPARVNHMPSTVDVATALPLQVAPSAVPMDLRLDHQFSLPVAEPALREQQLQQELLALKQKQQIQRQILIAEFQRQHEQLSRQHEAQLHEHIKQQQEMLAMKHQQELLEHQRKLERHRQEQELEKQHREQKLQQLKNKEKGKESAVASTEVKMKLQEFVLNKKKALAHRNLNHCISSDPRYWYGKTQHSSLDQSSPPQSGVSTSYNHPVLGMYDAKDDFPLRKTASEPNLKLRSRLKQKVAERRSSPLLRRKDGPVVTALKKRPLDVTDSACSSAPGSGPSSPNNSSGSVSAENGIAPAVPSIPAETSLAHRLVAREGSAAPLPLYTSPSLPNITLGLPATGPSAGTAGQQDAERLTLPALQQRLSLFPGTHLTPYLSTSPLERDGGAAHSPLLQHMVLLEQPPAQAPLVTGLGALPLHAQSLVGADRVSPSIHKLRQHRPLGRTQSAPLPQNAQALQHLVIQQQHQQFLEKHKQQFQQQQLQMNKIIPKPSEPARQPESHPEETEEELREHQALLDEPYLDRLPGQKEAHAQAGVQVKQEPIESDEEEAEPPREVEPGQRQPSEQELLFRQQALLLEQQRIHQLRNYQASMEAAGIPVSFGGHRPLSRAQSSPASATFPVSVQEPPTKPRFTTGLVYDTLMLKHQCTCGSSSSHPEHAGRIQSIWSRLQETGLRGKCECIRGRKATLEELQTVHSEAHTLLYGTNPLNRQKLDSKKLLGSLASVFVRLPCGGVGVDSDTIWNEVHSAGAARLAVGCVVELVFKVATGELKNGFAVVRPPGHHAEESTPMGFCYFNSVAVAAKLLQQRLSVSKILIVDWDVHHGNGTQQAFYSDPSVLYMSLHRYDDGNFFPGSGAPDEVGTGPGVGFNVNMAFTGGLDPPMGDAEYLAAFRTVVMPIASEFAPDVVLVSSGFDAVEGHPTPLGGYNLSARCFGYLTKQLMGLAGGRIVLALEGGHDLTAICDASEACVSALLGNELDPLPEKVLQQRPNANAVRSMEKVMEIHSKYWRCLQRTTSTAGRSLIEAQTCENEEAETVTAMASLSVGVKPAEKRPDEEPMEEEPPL

MRT last at 12 h [3]: 44.3 min
Tmax [5]: 30 min
IC50 [6]: 0.042 µM
bioavailability [9]: 95.3%
inhibition [12]: Active
Tmax [14]: 4.98 min
IC50 [18]: > 10 µM
inhibition [21]: Active
IC50 [24]: 5.56 µM
IC50 [25]: 8.2 µM
IC50 [27]: > 10 µM
MRT last at 12 h [29]: 266 min
SMILES: CCCNNC(=O)c1ccc(Cn2c3ccccc3c3c(-c4ccccn4)nc4ccccc4c32)cc1
Activity [1]: Active
Activity [2]: 5.9%
Activity [4]: 10.25%
Activity [7]: 25%
Activity [8]: Active
DC50 [10]: 4.03 µM
Activity [11]: Dose-dependent-effect
Activity [13]: inactive
Activity [15]: 32%
Activity [16]: Active
Activity [17]: Active
Activity [19]: Active
Activity [20]: Active
Activity [22]: Non-toxic
Activity [23]: 35.33%
Activity [26]: Active
Emax [28]: 85%
